Measurements: patent US11208675B2, “Reaction accelerating agent” (Kikkoman Corporation, priority 2016, dated 2021)

Experiments:
[1] = molecular target: T1, peroxidase PEO-301 (Toyobo Co., Ltd.) (Armoracia rusticana, UniProt P00433); assay: Hydrogen peroxide detection reaction mediated by peroxidase, completed using an excess of peroxidase (Example 1); assay type: biochemical; conditions: 0.067 U/ml peroxidase, 0.48% (w/v) compound in second reagent, 0.00012% (w/v) hydrogen peroxide, DA-67, pH 6.5, 37° C.; for ΔA9 min: ΔA of A694/751, 9 minutes after mixing second reagent with first reagent-A; for ΔA10 min: ΔA of A694/751, 10 minutes after mixing second reagent with first reagent-A (defined as ΔA100%)
T1 construct: purchased Toyobo Co., Ltd. PEO-301
T1 sequence (P00433 31-338): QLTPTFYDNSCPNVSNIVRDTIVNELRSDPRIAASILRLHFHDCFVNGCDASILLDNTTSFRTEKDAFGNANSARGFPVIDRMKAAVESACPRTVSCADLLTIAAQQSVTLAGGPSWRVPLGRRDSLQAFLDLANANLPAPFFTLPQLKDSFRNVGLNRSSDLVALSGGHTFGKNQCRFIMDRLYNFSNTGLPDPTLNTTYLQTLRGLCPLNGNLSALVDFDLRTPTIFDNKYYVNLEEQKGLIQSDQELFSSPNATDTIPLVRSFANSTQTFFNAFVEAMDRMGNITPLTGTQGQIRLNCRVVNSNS
Protocol: In this Example the amount of change in absorbance was determined when hydrogen peroxide detection reaction was completed using an excess of peroxidase.
A reagent for hydrogen peroxide measurement having the following composition (formulation) was prepared, and the measurement of hydrogen peroxide was carried out using Bio Majesty JCA-BM1650 (manufactured by JEOL Ltd.).
(§1) 100 mM MOPS-NaOH buffer solution, pH 6.5
(§2) 0.00012% (w/v) hydrogen peroxide
(§3) 30 mM MOPS-NaOH buffer solution, pH 6.5
(§4) 0.2% (w/v) n-dodecyl-β-D-maltoside (manufactured by Dojindo Laboratories)
0.067 U/ml peroxidase PEO-301 (Toyobo Co., Ltd.)
(§5) 0.023 mM 10-(carboxymethylaminocarbonyl)-3,7-bis(dimethylamino)phenothiazine sodium (DA-67, manufactured by Wako Pure Chemical Industries, Ltd.)
0.48% (w/v) of the compound of Comparative Example 2 (Wako Pure Chemical Industries, Ltd.), any one compound of the present invention (all from Tokyo Chemical Industry Co., Ltd.), or compound-free (Comparative Example 1) ion-exchange water as shown in Table 1
(§6) 8 μl of the second reagent was added to 96 μl of the first reagent-A, and the mixture was incubated at 37° C. for 5 minutes. Then, 24 μl of the sample was added thereto, and the quantitative reaction of hydrogen peroxide was allowed to progress at 37° C. for 5 minutes. The absorbance (A694 and A751) of the reaction solution for light at wavelengths of 694 nm and 751 nm was measured over time for 10 minutes after the mixing of the second reagent with the first reagent-A to determine the value of subtraction of A751 from A694, i.e., the value of A694/751. Subsequently, ΔA was calculated by subtracting, from A694/751, the value of (104/128) times A694/751 4.8 minutes after the mixing of the second reagent with the first reagent-A. Incidentally, 4.8 minutes after the mixing of the second reagent with the first reagent-A represents the time immediately before the addition of the sample. ΔA 9 minutes and 10 minutes after the mixing of the second reagent with the first reagent-A (ΔA9 min and ΔA10 min) is shown in Table 1.
In other words, it can be understood that the quantitative reaction of hydrogen peroxide was completed in 10 minutes after the mixing of the second reagent with the first reagent-A. Accordingly, ΔA10 min in each Comparative Example or the present invention was defined as ΔA when 100% of the quantitative reaction of hydrogen peroxide progressed under each condition (ΔA100%).

[2] = molecular target: T1, peroxidase PEO-301 (Toyobo Co., Ltd.); assay: Acceleration of hydrogen peroxide detection reaction mediated by peroxidase, using a small amount of peroxidase (Example 2); assay type: biochemical; conditions: 0.013 U/ml peroxidase; for acceleration of hydrogen peroxide detection reaction using peroxidase: as shown in Table 2, compared with not added; for Degree of progression of reaction (%) after 7.5 minutes / Degree of progression of reaction (%) after 10 minutes: ΔA divided by ΔA100%, 0.48% (w/v) compound in second reagent, 37° C.; for Degree of progression of reaction (%) after 7.5 minutes: 7.5 minutes after mixing second reagent with first reagent-B (2.5 minutes after addition of sample); for Degree of progression of reaction (%) after 10 minutes: 10 minutes after mixing second reagent with first reagent-B (5 minutes after addition of sample)
Protocol: Next, in this Example, the degree of acceleration of hydrogen peroxide detection reaction by the compound of the present invention was determined using a small amount of peroxidase.
A reagent for Hydrogen peroxide measurement having the following composition was prepared, and the measurement of hydrogen peroxide was carried out using Bio Majesty JCA-BM1650 (manufactured by JEOL Ltd.).
as §1, §2, §3, §4
0.013 U/ml peroxidase PEO-301 (Toyobo Co., Ltd.)
as §5
0.48% (w/v) of the compound of Comparative Example 2, any one compound of the present invention, or compound-free (Comparative Example 1) ion-exchange water as shown in Table 2
as §6, with “reagent-B,” for “reagent-A,”, “reagent-B” for “reagent-A”, “reagent-B.” for “reagent-A.”, “sample.” for “sample. ΔA 9 minutes and 10 minutes after the mixing of the second reagent with the first reagent-A (ΔA9 min and ΔA10 min) is shown in Table 1.”
Next, ΔA calculated in this Example was divided by ΔA100% defined in Example 1 to calculate the degree of progression of hydrogen peroxide detection reaction. The degree of progression of hydrogen peroxide detection reaction 7.5 and 10 minutes after the mixing of the second reagent with the first reagent-B (in other words, 2.5 and 5 minutes, respectively, after the addition of the sample) is shown in Table 2.

Compound	ΔA9 min [1]	ΔA10 min [1]	acceleration of hydrogen peroxide detection reaction using peroxidase [2]	Degree of progression of reaction (%) after 7.5 minutes [2] [%]	Degree of progression of reaction (%) after 10 minutes [2] [%]
O=C(O)c1cc2ccccc2c(N=Nc2c(O)cc(S(=O)(=O)O)c3ccccc23)c1O [2-hydroxy-1-(2-hydroxy-4-sulfo-1-naphthylazo)-3-naphthoic acid]	0.084	0.085	accelerated	61	90
Oc1ccc(N=Nc2ccccc2)cc1 [4-(Phenylazo)phenol, 4-(phenylazo)phenol]	0.122	0.122	accelerated	69	90
O=C([O-])c1cc(N=Nc2cccc([N+](=O)[O-])c2)ccc1O.[Na+] [Alizarin Yellow GG]	0.170	0.170	accelerated	64	89
COc1cc(N=Nc2cccc(S(=O)(=O)[O-])c2)ccc1NC(=O)Nc1ccc(N=Nc2ccc(O)c(C(=O)[O-])c2)cc1.[Na+].[Na+] [Direct Yellow 44]	0.228	0.228	accelerated	64	89
O=C([O-])C1=NN(c2ccc(S(=O)(=O)[O-])cc2)C(=O)C1N=Nc1ccc(S(=O)(=O)[O-])cc1.[Na+].[Na+].[Na+] (stereo not drawn) [Tartrazine, reference compound]	0.344	0.344	accelerated	57	85
Chrome Yellow	0.272	0.272	accelerated	66	92
